Assay [1] can be described thus: Inhibition of soybean 15-lipoxygenase using linoleic acid as substrate incubated for 5 mins prior to substrate addition measured after 7 mins by DMAB-MBTH method. More on the design: species or system Glycine max.
Assay [2] concerns Radical scavenging activity. As to the kind of experiment: Antioxidant activity assessed as inhibition of DPPH radical scavenging activity after 30 mins by spectrophotometry. The assay is classed as functional. (The DPPH test is a chemical assay of radical scavenging.)

The structures appear in SMILES notation.

In the case of `C=CCOc1ccc(NC(=O)C23CC4CC(CC(C4)C2)C3)cc1CC=C`, in assay [1], the IC50 (as a rule, the concentration at which inhibition is half-maximal) amounted to 9.8 µM. Regarding `C=CCOc1ccc(NC(=O)C2CCCCC2)cc1CC=C`, in assay [1], the IC50 was found to be 18.5 µM.

For the compound `C=CCOc1ccc(NC(=O)C2CCCC2)cc1CC=C`, half-maximal inhibition in assay [1] (IC50) required 58 µM. Still for that read-out and setting: the result for `C=CCOc1ccc(NC(=O)C2CCC2)cc1CC=C` reads 19.6 µM; that for `C=CCOc1ccc(NC(=O)C2CC2)cc1CC=C`, 54.1 µM. For the compound `C=CCOc1ccc(NC(C)=O)cc1CC=C`, in assay [1], the IC50 turned out to be 67.8 µM. Take `C=CCc1cc(NC(=O)C23CC4CC(CC(C4)C2)C3)ccc1OC/C=C(\C)CC/C=C(\C)CCC=C(C)C`: the IC50 in assay [1] was found to be 0.69 µM; in assay [2], 114 µM. Take `C=CCc1cc(NC(=O)C2CCCCC2)ccc1OC/C=C(\C)CC/C=C(\C)CCC=C(C)C`: the results for the IC50 in assay [1] and in assay [2] were 5.2 µM and 529 µM, respectively.

As for `C=CCc1cc(NC(=O)C2CCCC2)ccc1OC/C=C(\C)CC/C=C(\C)CCC=C(C)C`, the IC50 stood at 35.7 µM in assay [1] and 461 µM in assay [2].

`C=CCc1cc(NC(=O)C2CCC2)ccc1OC/C=C(\C)CC/C=C(\C)CCC=C(C)C`: the values for the IC50 in assay [1] and in assay [2] were 2.1 µM and 140 µM, respectively. For `C=CCc1cc(NC(=O)C2CC2)ccc1OC/C=C(\C)CC/C=C(\C)CCC=C(C)C` the same measures were 16.5 µM and 8.9 µM.

Take `C=CCc1cc(NC(C)=O)ccc1OC/C=C(\C)CC/C=C(\C)CCC=C(C)C`: the IC50 in assay [1] was found to be 24.8 µM; in assay [2], 225 µM. As for `C=CCc1cc(NC(=O)C23CC4CC(CC(C4)C2)C3)ccc1OC/C=C(\C)CCC=C(C)C`, the IC50 in assay [1] was determined as 3.6 µM; in assay [2], 121 µM.

Take `C=CCc1cc(NC(=O)C23CC4CC(CC(C4)C2)C3)ccc1OCC=C(C)C`: the IC50 in assay [1] stood at 10.3 µM; in assay [2], 105 µM. For the compound `Cc1nc(N2CCN(C)CC2)nc2c1Nc1ccccc1S2`, inhibition in assay [1] was half-maximal at 28.2 µM (IC50). Same read-out and setting: under `C=CCOc1ccc(NC(=O)C23CC4CC(CC(C4)C2)C3)cc1` stands 27.8 µM; under `O=C(O)/C=C/c1ccc(O)c(O)c1` [CAFFEIC ACID], 37.1 µM. For `CC(Cc1ccc(O)c(O)c1)C(C)Cc1ccc(O)c(O)c1` (stereo unspecified) [NORDIHYDROGUAIARETIC ACID], the IC50 in assay [2] amounted to 6.2 µM.

The record behind these values is ChEMBL document CHEMBL2086263, “Synthesis and SAR studies of 3-allyl-4-prenyloxyaniline amides as potent 15-lipoxygenase inhibitors” (Bioorg Med Chem, 2012).
